Measured values as given in EP0561850B1, “7-SUBSTITUTED-6-FLUORO-1,4-DIHYDRO-4-OXO-QUINOLINE-3-CARBOXYLIC ACID COMPOUNDS USEFUL AS ANTIBACTERIAL AGENTS” (priority 1990, dated 1992).
Values after ≈ are worked out from the molar mass of the structure shown. Read-outs that look alike come from different tables or passages of the source.

Columns and labels:
[1] = tested on: Staphylococcus aureus S-127; test: In vitro antimicrobial activity against aerobes, broth microdilution (NCCLS 1985); assay type: cell-based; conditions: S127, read after 16-18 hours
Protocol: For aerobic microorganisms, a cation supplemented Mueller Hinton Broth (BBL) was used whereas the Anaerobe Broth MIC (Difco) was used for anaerobic microorganisms. An agar Dilution method was employed for certain aerobic microorganisms using Mueller Hinton II Agar (BBL) and a Cathra multipoint inoculating device which delivered 10^4 cfu/spot of the inoculum on the agar surface. MICs were read after 16-18 hours and 48 hours of incubation in case of microbes growing aerobically and anaerobically respectively.

[2] = tested on: Enterobacter cloacae S-130; test: Microbroth dilution (MHB) method, NCCLS M7-A2; assay type: cell-based; conditions: 35 °C/18 hr
Protocol: (§1) The test organisms were obtained from ATCC and clinical laboratories. The 96-well microtitre plates containing […] of serially diluted test compounds in Mueller Hinton Broth (MHB) (conc. range 64-0.03 µg/ml) were inoculated with […] of bacterial suspension in MHB so that an inoculum size of 5 x 10^5 cfu/ml was achieved.
(§2) EC. (S- 63): Eschericia coli Ecl. (S- 130): Enterobacter cloacae Pa. (S- 67): Pseudomonas aeruginosa Kp. (S- 80): Klebsiella pneumoniae Pr.
(§3) Microbroth Dilution (MHB) method; Inoculum, 5 x 10^5 cfu/ml; Incubation 35 °C/18 hr

Eschericia coli S-63 = test: Microbroth dilution (MHB) method, NCCLS M7-A2; assay type: cell-based; conditions: Ec S-63, inoculum 5 x 10^5 cfu/ml, 35 °C/18 hr
Protocol: as §1, §2, §3

[3] = tested on: Klebsiella pneumoniae S-80; test: Microbroth dilution (MHB) method, NCCLS M7-A2; assay type: cell-based; conditions: Kp S-80, MHB, inoculum 5 x 10^5 cfu/ml, 35 °C/18 hr
Protocol: as §1, §2, §3

[4] = tested on: Providencia rettgeri S-121; test: Microbroth dilution (MHB) method, NCCLS M7-A2; assay type: cell-based; conditions: 35 °C/18 hr
Protocol: as §1, §2, §3

[5] = tested on: Pseudomonas aeruginosa S-67; test: Microbroth dilution (MHB) method, NCCLS M7-A2; assay type: cell-based; conditions: Pa S-67, MHB, inoculum 5 x 10^5 cfu/ml, 35 °C/18 hr
Protocol: as §1, §2, §3

[6] = tested on: Staphylococcus aureus S-127; test: Microbroth dilution (MHB) method, NCCLS M7-A2; assay type: cell-based; conditions: 35 °C/18 hr
Protocol: as §1, §2, §3

Sa 127M = test: Microbroth dilution (MHB) method, NCCLS M7-A2; assay type: cell-based, Staphylococcus aureus; conditions: inoculum 5 x 10^5 cfu/ml, 35 °C/18 hr
Protocol: as §1, §2, §3

[7] = Enterobacter cloacae, S130, Ecl S-130, inoculum 5 x 10^5 cfu/ml, read-out: MIC
[8] = Klebsiella pneumoniae, S80, read-out: MIC
[9] = Providencia rettgeri, S121, Pr S-121, inoculum 5 x 10^5 cfu/ml, read-out: MIC
[10] = Pseudomonas aeruginosa, S67, read-out: MIC
[11] = Staphylococcus aureus, S127, Sa S-127, inoculum 5 x 10^5 cfu/ml, read-out: MIC
[12] = Staphylococcus aureus, read-out: MIC

Row | Compound | MIC [1] [mg/L] | MIC [2, 7] [mg/L] | MIC (Eschericia coli S-63; read-out: MIC) [mg/L] | MIC [3, 8] [mg/L] | MIC [4, 9] [mg/L] | MIC [5, 10] [mg/L] | MIC [6, 11] [mg/L] | MIC (Sa 127M; [12]) [mg/L] | other results
1 | Nc1c(F)c(N2CC[C@@H](n3ccnn3)C2)c(F)c2c1c(=O)c(C(=O)O)cn2-c1ccc(F)cc1F [Example 16, 5-Amino-1-(2,4-difluorophenyl)-6,8-difluoro-7-[3R-(1,2,3-triazol-1-yl)-pyrrolidin-1-yl]-1,4-dihydro-4-oxo-quinoline-3-carboxylic acid] | 0.015 (≈ 0.0307 µM) | – | – | – | – | – | – | – | –
2 | N[C@@H]1CN(c2c(F)cc3c(=O)c(C(=O)O)cn(C4CC4)c3c2F)C[C@@H]1n1ccnn1 (relative stereo) [Example 17, 7-[cis-3-Amino-4-(1,2,3-triazol-1-yl)-pyrrolidin-1-yl]-1-cyclopropyl-6,8-difluoro-1,4-dihydro-4-oxo-quinoline-3-carboxylic acid] | 1 (≈ 2.4 µM) | – | – | – | – | – | – | – | –
3 | Nc1c(F)c(N2C[C@@H](N)[C@@H](n3ccnn3)C2)c(F)c2c1c(=O)c(C(=O)O)cn2-c1ccc(F)cc1F (relative stereo) [Example 19, 5-Amino-7-[cis-3-amino-4-(1,2,3-triazol-1-yl)-pyrrolidin-1-yl]-1-(2,4-difluorophenyl)-6,8-difluoro-1,4-dihydro-4-oxo-quinoline-3-carboxylic acid] | 0.5 (≈ 0.993 µM) | – | – | – | – | – | – | – | –
4 | O=C(O)c1cn(C2CC2)c2nc(N3CC[C@H](n4ccnn4)C3)c(F)cc2c1=O [Example 5] | ≤ 0.03 | – | – | – | – | – | – | – | –
5 | CCOC(=O)c1cn(C2CC2)c2nc(N3C[C@@H](N)[C@@H](n4ccnn4)C3)c(F)cc2c1=O (relative stereo) [Example 6, Ethyl 7-[cis-3-amino-4-(1,2,3-triazol-1-yl)pyrrolidin-1-yl] -1-cyclopropyl-6-fluoro-1,4-dihydro-4-oxo-1,8-naphthyridine-3-carboxylate] | ≤ 0.03 | – | – | – | – | – | – | – | –
6 | O=C(O)c1cn(-c2ccc(F)cc2)c2c(F)c(N3CCC(n4ccnn4)C3)c(F)cc2c1=O (centres unmarked) [Example 2, 6,8-Difluoro-1-(4-fluorophenyl)-7-[3-(1,2,3-triazol-1-yl)-pyrrolidin-1-yl]-1,4-dihydro-4-oxo-quinoline-3-carboxylic acid] | ≤ 0.06 | – | – | – | – | – | – | – | –
7 | Nc1c(F)c(N2C[C@@H](N)[C@@H](n3ccnn3)C2)c(F)c2c1c(=O)c(C(=O)O)cn2C1CC1 (relative stereo) [Example 18, 5-Amino-7-[cis-3-amino-4-(1,2,3-triazol-1-yl)-pyrrolidin-1-yl]-1-cyclopropyl-6,8-difluoro-1,4-dihydro-4-oxo-quinoline-3-carboxylic acid] | 0.5 (≈ 1.16 µM) | – | – | – | – | – | – | – | –
8 | C[C@H]1COc2c(N3CCC(n4ccnn4)C3)c(F)cc3c(=O)c(C(=O)O)cn1c23 (single isomer, unassigned; (-)) [Example 38] | – | 1 (≈ 2.5 µM) | 0.25 (≈ 0.626 µM) | 1 (≈ 2.5 µM) | 1 (≈ 2.5 µM) | 8 (≈ 20 µM) | 0.12 (≈ 0.3 µM) | 0.5 (≈ 1.25 µM) | –
9 | Cc1c(F)c(N2CCC(n3ccnn3)C2)c(F)c2c1c(=O)c(C(=O)O)cn2C1CC1 (centres unmarked) [Example 24, 1-Cyclopropyl-6,8-difluoro-5-methyl-7-[3-(1,2,3-triazol-1-yl)pyrrolidin-1-yl]-1,4-dihydro-4-oxo-quinoline-3-carboxylic acid] | – | 0.25 (≈ 0.602 µM) | 0.12 (≈ 0.289 µM) | 0.5 (≈ 1.2 µM) | 0.5 (≈ 1.2 µM) | 4 (≈ 9.63 µM) | ≤ 0.015 | ≤ 0.015 | –
10 | CCOC(=O)c1cn(C2CC2)c2nc(N3CC[C@H](n4ccnn4)C3)c(F)cc2c1=O [Example 4, Ethyl 1-cyclopropyl-6-fluoro-7-[3(S)-(1,2,3-triazol-1-yl)pyrrolidin-1-yl]-1,4-dihydro-4-oxo-1,8-naphthyridine-3-carboxylate] | ≤ 0.06 | – | – | – | – | – | – | – | –
11 | Cc1nnn(C2CCN(c3c(F)cc4c(=O)c(C(=O)O)cn(C5CC5)c4c3F)C2)c1C (centres unmarked) [Example 26, 1-Cyclopropyl-6,8-difluoro-7[3-(4,5-dimethyl-1,2,3-triazol-1-yl)pyrrolidin-1-yl]-1,4-dihydro-4-oxo-quinoline-3-carboxylic acid] | – | 2 (≈ 4.66 µM) | 0.25 (≈ 0.582 µM) | 1 (≈ 2.33 µM) | 1 (≈ 2.33 µM) | 8 (≈ 18.6 µM) | 0.03 (≈ 0.0699 µM) | 0.06 (≈ 0.14 µM) | –
12 | Cc1cn(C2CCN(c3c(F)c(C)c4c(=O)c(C(=O)O)cn(C5CC5)c4c3F)C2)nn1 (centres unmarked) [Example 21, 1-Cyclopropyl-6,8-difluoro-5-methyl-7-[3-(4-methyl-1,2,3-triazol-1-yl)pyrrolidin-1-yl]-1,4-dihydro-4-oxo-quinoline-3-carboxylic acid] | – | 0.25 (≈ 0.582 µM) | 0.06 (≈ 0.14 µM) | 0.25 (≈ 0.582 µM) | 0.12 (≈ 0.279 µM) | 2 (≈ 4.66 µM) | 0.015 (≈ 0.0349 µM) | 0.015 (≈ 0.0349 µM) | –
13 | N,N,N-Trimethyl-N-(2-hydroxyethyl)ammonium-1-cyclopropyl-6,8-difluoro-7-[3-(1,2,4-triazol-1-yl)pyrrolidin-1-yl]-1,4-dihydro-4-oxo-quinoline-3-carboxylate [Example 37] | – | – | – | – | – | – | – | – | MIC ([2]; Ecl S-130, inoculum 5 x 10^5 cfu/ml): 2 mg/L; MIC (Eschericia coli S-63): .5 mg/L; MIC [3]: 1 mg/L; MIC ([4]; Pr S-121, inoculum 5 x 10^5 cfu/ml): 1 mg/L; MIC [5]: 8 mg/L; MIC ([6]; Sa S-127, inoculum 5 x 10^5 cfu/ml): .06 mg/L; MIC (Sa 127M): .25 mg/L
14 | Nc1c(F)c(N2CCC(n3cc(-c4ccccc4)nn3)C2)c(F)c2c1c(=O)c(C(=O)O)cn2C1CC1 (centres unmarked) [Example 47, 5-amino-1-cyclopropyl-6,8-difluoro-7-[3-(4-phenyl-1,2,3-triazol-1-yl)-pyrrolidin-1-yl]-1,4-dihydro-4-oxo-quinoline-3-carboxylic acid] | – | 16 (≈ 32.5 µM) | 0.25 (≈ 0.508 µM) | 0.5 (≈ 1.02 µM) | 0.015 (≈ 0.0305 µM) | > 32 | 0.015 (≈ 0.0305 µM) | 0.015 (≈ 0.0305 µM) | –
15 | Cc1cn(C2CCN(c3c(F)cc4c(=O)c(C(=O)O)cn(C5CC5)c4c3F)C2)nn1 (centres unmarked) [Example 27, 1-Cyclopropyl-6,8-difluoro-7-[3-(4-methyl-1,2,3-triazol-1-yl)pyrrolidin-1-yl]-1,4-dihydro-4-oxo-quinoline-3-carboxylic acid] | – | 1 (≈ 2.41 µM) | 0.25 (≈ 0.602 µM) | 0.5 (≈ 1.2 µM) | 2 (≈ 4.81 µM) | 4 (≈ 9.63 µM) | 0.125 (≈ 0.301 µM) | 0.25 (≈ 0.602 µM) | –
16 | Nc1c(F)c(N2CC[C@@H](n3ccnn3)C2)c(F)c2c1c(=O)c(C(=O)O)cn2C1CC1 [Example 13, 5-Amino-1-cyclopropyl-6,8-difluoro-7-[3R-(1,2,3-triazol-1-yl)-pyrrolidin-1-yl)-1,4-dihydro-4-oxo-quinoline-3-carboxylic acid] | 0.008 (≈ 0.0192 µM) | – | – | – | – | – | – | – | –
17 | O=C(O)c1cn(C2CC2)c2c(F)c(N3CCC(n4nncc4C(=O)O)C3)c(F)cc2c1=O (centres unmarked) [Example 43, 1-Cyclopropyl-6,8-difluoro-7-(3-(5-carboxy-1,2,3-triazol-1-yl)-pyrrolidin-1-yl)-1,4-dihydro-4-oxo-quinoline-3-carboxylic acid] | – | 32 (≈ 71.8 µM) | 16 (≈ 35.9 µM) | 32 (≈ 71.8 µM) | 32 (≈ 71.8 µM) | > 32 | 8 (≈ 18 µM) | 8 (≈ 18 µM) | –
18 | Cc1cn(C2CCN(c3c(F)c(N)c4c(=O)c(C(=O)O)cn(C5CC5)c4c3F)C2)nn1 (centres unmarked) [Example 25, 5-Amino-1-cyclopropyl-6,8-difluoro-7-[3-(4-methyl-1,2,3-triazol-1-yl)pyrrolidin-1-yl]-1,4-dihydro-4-oxo-quinoline-3-carboxylic acid] | – | 0.25 (≈ 0.581 µM) | 0.06 (≈ 0.139 µM) | 0.25 (≈ 0.581 µM) | 0.25 (≈ 0.581 µM) | 2 (≈ 4.65 µM) | ≤ 0.015 | 0.03 (≈ 0.0697 µM) | –
19 | Cc1cnnn1C1CCN(c2c(F)cc3c(=O)c(C(=O)O)cn(C4CC4)c3c2F)C1 (centres unmarked) [Example 22, 1-Cyclopropyl-6,8-difluoro-7-[3-(5-methyl-1,2,3-triazol-1-yl)pyrrolidin-1-yl]-1,4-dihydro-4-oxo-quinoline-3-carboxylic acid] | – | 0.25 (≈ 0.602 µM) | 0.25 (≈ 0.602 µM) | 0.5 (≈ 1.2 µM) | 0.25 (≈ 0.602 µM) | 4 (≈ 9.63 µM) | ≤ 0.015 | 0.12 (≈ 0.289 µM) | –
20 | Cc1cn(C2CCN(c3c(F)cc4c(=O)c(C(=O)O)cn5c4c3OC[C@@H]5C)C2)nn1 (single isomer, unassigned; (-)) [Example 39] | – | 1 (≈ 2.42 µM) | 0.25 (≈ 0.605 µM) | 1 (≈ 2.42 µM) | 1 (≈ 2.42 µM) | 8 (≈ 19.4 µM) | 0.03 (≈ 0.0726 µM) | 0.12 (≈ 0.29 µM) | –
